Data on 24 compounds can be found in ChEMBL document CHEMBL4364320, “An insight into the medicinal perspective of synthetic analogs of indole: A review” (Eur J Med Chem, 2019).

Test [1] concerns Human immunodeficiency virus 1. Nature of the test: Antiviral activity against wild type HIV1 infected in human MT4 cells. In kind it is functional, organism-based. The following applies: Human immunodeficiency virus 1, MT4.
Test [2] deals with Sodium-dependent serotonin transporter (Homo sapiens, UniProt P31645). Nature of the test: Inhibition of 5HT transporter (unknown origin).
Sequence of Sodium-dependent serotonin transporter (P31645 whole entry): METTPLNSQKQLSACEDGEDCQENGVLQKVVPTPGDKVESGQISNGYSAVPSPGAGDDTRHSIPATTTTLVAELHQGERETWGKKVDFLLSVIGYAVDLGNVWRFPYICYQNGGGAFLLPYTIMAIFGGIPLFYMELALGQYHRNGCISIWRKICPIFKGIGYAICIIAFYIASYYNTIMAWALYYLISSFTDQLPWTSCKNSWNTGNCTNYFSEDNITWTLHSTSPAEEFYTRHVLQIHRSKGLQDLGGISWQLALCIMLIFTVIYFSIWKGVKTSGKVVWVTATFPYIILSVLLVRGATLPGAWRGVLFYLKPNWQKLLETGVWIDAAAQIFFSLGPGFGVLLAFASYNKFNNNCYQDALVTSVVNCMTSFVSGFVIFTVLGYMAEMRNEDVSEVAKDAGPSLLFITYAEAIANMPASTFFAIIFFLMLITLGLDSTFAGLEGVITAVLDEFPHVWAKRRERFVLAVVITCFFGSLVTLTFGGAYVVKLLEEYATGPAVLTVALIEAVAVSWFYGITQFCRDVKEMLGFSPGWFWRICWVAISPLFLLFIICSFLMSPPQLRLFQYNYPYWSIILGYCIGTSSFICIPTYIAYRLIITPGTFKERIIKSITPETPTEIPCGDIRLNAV
Test [3] has as its system Plasmodium falciparum. In words: Antiplasmodial activity against chloroquine-resistant Plasmodium falciparum Dd2. In kind it is functional, organism-based.
Test [4] can be described thus: Inhibition of TNFalpha-induced NFkappaB activation in HEK293 cells preincubated for 6 hrs followed by TNFalpha addition by luciferase reporter gene assay. In kind it is cell-based. To be noted: Homo sapiens.
Test [5] deals with RAW264.7. In words: Inhibition of LPS-induced nitric oxide production in mouse RAW264.7 cells preincubated for 15 mins followed by LPS stimulation measured after 20 hrs by griess assay. Type of test: functional, cell-based. On the technique in general: Griess reagent forms a coloured azo dye with nitrite.
Test [6] concerns Human immunodeficiency virus 1. Nature of the test: Antiviral activity against wild type HIV1 3B infected in human MT2 cells after 3 days by BrightGlo luciferase reporter gene assay. Type of test: functional, organism-based. The following applies: Human immunodeficiency virus 1, 3B, MT2, 72 h.
Test [7] concerns Human immunodeficiency virus 1. In words: Antiviral activity against HIV1 infected in human MT4 cells. Type of test: functional, organism-based. The following applies: Human immunodeficiency virus 1, MT4.
Test [8] concerns Mycobacterium tuberculosis. In words: Antimycobacterial activity against Mycobacterium tuberculosis. In kind it is functional.
Test [9] has as its system Mycobacterium tuberculosis. Nature of the test: Antimycobacterial activity against drug-sensitive Mycobacterium tuberculosis. In kind it is functional.
Test [10] has as its target T1, Dihydrofolate reductase (Homo sapiens, UniProt P00374).
T1 sequence (P00374 whole entry): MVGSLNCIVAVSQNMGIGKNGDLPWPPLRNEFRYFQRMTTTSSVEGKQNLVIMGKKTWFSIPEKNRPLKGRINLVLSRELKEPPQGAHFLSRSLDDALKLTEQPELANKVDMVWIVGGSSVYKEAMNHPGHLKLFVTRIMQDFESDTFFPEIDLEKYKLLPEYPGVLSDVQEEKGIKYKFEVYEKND
Nature of the test: Inhibition of human DHFR.

Test [11] concerns the target T2, Dihydrofolate reductase (Mycobacterium tuberculosis, UniProt P9WNX1).
T2 sequence (P9WNX1 whole entry): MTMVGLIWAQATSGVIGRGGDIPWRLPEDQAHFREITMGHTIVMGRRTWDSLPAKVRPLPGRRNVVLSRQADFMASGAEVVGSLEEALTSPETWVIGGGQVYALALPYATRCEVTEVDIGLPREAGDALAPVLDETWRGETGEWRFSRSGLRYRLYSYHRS
Nature of the test: Inhibition of Mycobacterium tuberculosis H37Rv DHFR.

Test [12] has as its target T3, Prostaglandin G/H synthase 2 (Homo sapiens, UniProt P35354).
T3 sequence (P35354 whole entry): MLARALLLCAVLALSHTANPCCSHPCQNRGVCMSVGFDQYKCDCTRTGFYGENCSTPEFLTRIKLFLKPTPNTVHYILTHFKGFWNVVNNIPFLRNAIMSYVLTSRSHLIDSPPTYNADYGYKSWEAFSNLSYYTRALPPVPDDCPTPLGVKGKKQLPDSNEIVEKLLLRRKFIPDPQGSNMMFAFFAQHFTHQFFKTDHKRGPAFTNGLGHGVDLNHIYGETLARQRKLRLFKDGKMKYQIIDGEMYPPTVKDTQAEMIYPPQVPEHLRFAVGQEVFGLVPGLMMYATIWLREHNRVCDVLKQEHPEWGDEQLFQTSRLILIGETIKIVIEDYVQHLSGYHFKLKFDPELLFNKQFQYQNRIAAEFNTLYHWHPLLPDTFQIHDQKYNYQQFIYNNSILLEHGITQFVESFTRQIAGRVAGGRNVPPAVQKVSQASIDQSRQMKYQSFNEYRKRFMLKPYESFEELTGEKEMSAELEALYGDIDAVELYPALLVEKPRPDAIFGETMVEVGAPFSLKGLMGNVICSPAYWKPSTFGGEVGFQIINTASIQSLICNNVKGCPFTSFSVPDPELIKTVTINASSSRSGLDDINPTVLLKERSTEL
Nature of the test: Inhibition of recombinant human COX2 assessed as decrease in PGE2 release after 10 mins by EIA.

Test [13] has as its system RAW264.7. In words: Inhibition of nitric oxide production in mouse RAW264.7 cells by griess assay. In kind it is functional, cell-based.
Test [14] has as its system Mus musculus. In words: Antidiabetic activity in db/db mouse assessed as reduction in serum glucose level at 10 to 30 mg/kg, po after 1 week relative to control. Type of test: functional. Also noted: scale not given: the % may be the effect or the level left.
In test [15] the test system is Human immunodeficiency virus 1. In words: Antiviral activity against HIV1 infected in human C8166 cells. To be noted: Human immunodeficiency virus 1, C8166. In kind it is functional, organism-based.

The structures appear in SMILES notation. Converted amounts (≈) assume the structure as drawn.

Turning to `COP(=O)(c1cc(C)cc(/C=C/C#N)c1)c1c(C(N)=O)[nH]c2ccc(Cl)cc12` (stereo not drawn), the IC50 in [1] worked out at 0.08 nM.

In test [2], `Fc1cc2c(c(OCCNCCc3c[nH]c4ccc(F)cc34)c1)OCCC2` came in with an inhibition constant Ki of 5 nM.

For the compound `CC1=C[C@@H]2c3c(CCN(C)C)c4ccccc4n3[C@@H](c3[nH]c4ccccc4c3CCN(C)C)[C@@H]2C(C)(C)C1`, 80 nM corresponded to half-maximal inhibition in test [3] (IC50).

`O/N=C/c1c(-c2ccccc2)[nH]c2ccccc12`: the results for the IC50 in test [4] and in test [5] were 6900 nM and 4400 nM, respectively.

Consider `CCOC(=O)Nc1[nH]c2ccc(Br)cc2c1C(C)(O)C(F)(F)F` (stereo not drawn), for which the concentration for half-maximal inhibition (IC50) in test [6] is 3 nM.

As to `Cc1cc(C)nc(NS(=O)(=O)c2ccc(/N=C3\C(=O)Nc4ccccc43)cc2)n1`, the EC50 in test [7] was 8 µg/mL.

On to `N#Cc1ccc(C2SCC(=O)N2NC(=O)c2[nH]c3ccc(F)cc3c2-c2ccccc2)cc1` (stereo not drawn), for which the MIC99 in test [8] is 6.25 µg/mL (≈ 13.7 µM).

`CNCCc1c(/C=C/[C@@]2(C)C[C@H](C=C(C)C)c3c(CCNC)c4ccccc4n32)[nH]c2ccccc12` had a half-maximal inhibitory concentration (IC50) in [3] of 80 to 1420 nM.

Compound `CNCCc1c([C@H]2[C@H]3[C@H](C=C(C)CC3(C)C)c3c(CCNC)c4ccccc4n32)[nH]c2ccccc12` gave a 50% inhibitory concentration (IC50) in test [3] of 80 to 1420 nM.

In test [9], `C[C@@H]1[C@H]2C[C@@H](C[C@H]1NC(=O)c1cc3c(F)cc(F)cc3[nH]1)C2(C)C` had an MIC of 0.012 µM (≈ 3.99 ng/mL).

In turn, `CC(C)=C[C@H]1C[C@](C)(/C=C/c2[nH]c3ccccc3c2CCN(C)C)n2c1c(CCN(C)C)c1ccccc12` showed a 50% inhibitory concentration (IC50) in [3] of 80 to 1420 nM.

Compound `CCCCC(O)(c1c(NC(=O)OCC)[nH]c2ccc(Br)cc12)C(F)(F)F` (stereo not drawn) registered an IC50 in test [6] of 3 nM.

Consider `CC(=O)c1c(C)n(Cc2ccccc2)c2ccc(OCCCC(=O)O)cc12`, for which the IC50 in test [10] stood at 980000 nM; in test [11] it was 150000 nM.

`COc1ccc2cc(-c3cc4ccccc4[nH]3)ccc2c1` had an IC50 in test [4] of 600 nM.

For `CC(=O)N1C(=O)/C(=N\c2ccc(S(=O)(=O)Nc3nc(C)cc(C)n3)cc2)c2ccccc21`, a half-maximal effect in test [7] (EC50) was put at 8000 nM.

`CC(C)=C[C@H]1C[C@@](C)(/C=C/c2[nH]c3ccccc3c2CCN(C)C)n2c1c(CCN(C)C)c1ccccc12`: the half-inhibitory concentration (IC50) in test [3] lay in the range of 80 to 1420 nM.

On to `C#CCc1cn(C)c2c(O)cccc12`, for which the half-inhibitory concentration (IC50) in [12] came to 6220 nM; in [13], 39800 nM.

As to `O=C(NN1C(=O)CSC1c1ccc([N+](=O)[O-])cc1)c1[nH]c2ccc(F)cc2c1-c1ccccc1` (stereo not drawn), in [8], the MIC99 came out at 6.25 µg/mL (≈ 13.1 µM).

`N#Cc1c(-c2ccccc2)[nH]c2ccccc12`: the half-inhibitory concentration (IC50) in test [4] amounted to 8500 nM; in test [5] it was 4800 nM.

Consider `Cc1c(CC(=O)O)c2cc(O)ccc2n1C(=O)c1ccc(Cl)cc1`, for which, in test [14], the Activity was 44.3%.

`C[C@@H]1CC[C@H]2[C@@H](C)C(=O)O[C@@H]3O[C@@]4(C)CC[C@@H]1[C@]32OO4` [ARTEMISININ]: the 50% inhibitory concentration (IC50) in test [3] was 80 to 1420 nM.

Compound `CO[C@H]1/C=C/O[C@@]2(C)Oc3c(C)c(O)c4c(O)c(c(/C=N/N5CCN(C)CC5)c(O)c4c3C2=O)NC(=O)/C(C)=C\C=C\[C@H](C)[C@H](O)[C@@H](C)[C@@H](O)[C@@H](C)[C@H](OC(C)=O)[C@@H]1C` [RIFAMPIN] gave an MIC99 in test [8] of 0.25 µg/mL (≈ 0.304 µM).

Consider `CN(CCOc1ccc(CC2SC(=O)NC2=O)cc1)c1ccccn1` (stereo not drawn) [ROSIGLITAZONE], for which the Activity in test [14] turned out to be 66%.

`Cc1cn([C@H]2C[C@H](N=[N+]=[N-])[C@@H](CO)O2)c(=O)[nH]c1=O` [ZIDOVUDINE] had a concentration giving a half-maximal response (EC50) in test [15] of 1100 nM.

The term IC50 denotes the concentration at which inhibition is half-maximal. Broadly, the Ki is a dissociation constant, usually derived from enzyme kinetics or from competition with a known ligand. In general, EC50 refers to the concentration at which the effect is half-maximal. By MIC99 is commonly meant the lowest concentration that inhibits either 99% of growth or 99% of the strains tested, depending on the study. By MIC is commonly meant the least concentration at which growth counts as inhibited.
